# Assay results taken from publication PMC7562719, “Discovery of a CNS penetrant small molecule SMN2 splicing modulator with improved tolerability for spinal muscular atrophy” (Scientific Reports, 2020).
# Key:
# [1] = molecular target: T1, human acetylcholinesterase (Homo sapiens, UniProt P22303); assay: Eurofins selectivity panel: acetylcholinesterase; type: biochemical
# T1 construct: purchased Eurofins Inc
# [2] = tested on: 106 representative proteins that are drug discovery targets; assay: Eurofins selectivity panel of 106 representative proteins
# [3] = pharmacokinetic study in adult wild type FVB mice, oral; type: in vivo; conditions: for Kp / Cmax / MRT / Tmax: male, mouse
# Protocol: TEC-1 was administered at doses of 2, 6, and 20 mg/kg for oral (suspended in 0.5% methyl cellulose aqueous solution) to male FVB mice (aged 8 weeks, 3 mice per a time point). After 0.5–120 h administration, blood and brain samples were collected. Blood samples with heparin were centrifuged for plasma collection. Brain samples were homogenized in saline 20% (w/v). The samples were deproteinized with acetonitrile and following by centrifugation, and the supernatants were analyzed by LC/MS/MS to obtain TEC-1 concentrations of the plasma and brain.
# [4] = pharmacokinetic study in neonatal/juvenile FVB mice, intraperitoneal; type: in vivo; conditions: for Kp / Cmax / MRT / Tmax: male, mouse, ip; for Kp: brain/plasma, read-out: Kp (AUC0–120h ratio)
# Protocol: TEC-1 was intraperitoneally administered at doses of 0.2, 0.6, and 2 mg/kg (suspended in saline/0.9% NaCl solution) to male FVB mice (10 days old, 3 mice per a time point). After administration, brain samples and blood samples with heparinized capillary tubes from heart were collected. Blood samples were centrifuged to obtain the plasma fraction. Brain samples were homogenized in 20% (w/v) saline. The samples were deproteinized with acetonitrile followed by centrifugation and the supernatants were analyzed by LC/MS/MS to obtain TEC-1 concentrations of the plasma and brain.
# [5] = tested on: ChAT protein; assay: ChAT protein in iPSC-derived motor neurons (western blot); type: cell-based, human; conditions: iPSC-derived motor neurons (GM24468), 3 days
# Protocol: GM03813 fibroblasts and GM24468-derived MNs were seeded at 1.5 × 10^4 and 4 × 10^4 cells/well in 96-well plates and were treated with TEC-1 or SMN-C3 for 72 h at the concentration of 0.01, 0.03, 0.1, 0.3, 1, or 3 µM. After 72 h exposure of compound, GM24468 derived MNs and GM03813 fibroblasts were washed once with D-PBS (-), lysed with RIPA buffer (Wako) containing cOmplete (Sigma-Aldrich) and PhosSTOP (Sigma-Aldrich). The lysates were spun at 15,000 rpm for 15 min at 4 °C, and the supernatants were collected. The protein concentration was quantified with BCA kit (Wako). The lysates, adjusted to have the same protein amount, were mixed with NuPAGE LDS sample buffer containing DTT and heated at 95 °C for 5 min. Except for HTT detection, each sample (2 µg total protein/lane) was loaded Perfect NT Gel 7.5–15% gel (DRC, Japan) and run at 150 V for 60–70 min with Tris/glycine/SDS running buffer (BIO-RAD, USA). The proteins were transferred from the gel to Immobilon-P PVDF Membrane (Millipore, USA) with a transfer solution comprising 10% methanol and 1 × Novex Tris-glycine transfer buffer at 25 V for 180–240 min using Criterion blotter (BIO-RAD). […] After washing with TBS-T four times, chemiluminescence signals were detected by Immunostar Zeta (Wako) and LAS-4000 (GE healthcare).
# [6] = brain, 2 mg/kg oral single, adult FVB mice
# [7] = brain, 6 mg/kg oral single, adult FVB mice
# [8] = brain, 20 mg/kg oral single, adult FVB mice
# [9] = plasma, 2 mg/kg oral single, adult FVB mice
# [10] = plasma, 6 mg/kg oral single, adult FVB mice
# [11] = plasma, 20 mg/kg oral single, adult FVB mice
# [12] = brain, 0.2 mg/kg i.p. single, juvenile FVB mice
# [13] = brain, 0.6 mg/kg i.p. single, juvenile FVB mice
# [14] = brain, 2 mg/kg i.p. single, juvenile FVB mice
# [15] = plasma, 0.2 mg/kg i.p. single, juvenile FVB mice
# [16] = plasma, 0.6 mg/kg i.p. single, juvenile FVB mice
# [17] = plasma, 2 mg/kg i.p. single, juvenile FVB mice
# T1 sequence (P22303 32-614): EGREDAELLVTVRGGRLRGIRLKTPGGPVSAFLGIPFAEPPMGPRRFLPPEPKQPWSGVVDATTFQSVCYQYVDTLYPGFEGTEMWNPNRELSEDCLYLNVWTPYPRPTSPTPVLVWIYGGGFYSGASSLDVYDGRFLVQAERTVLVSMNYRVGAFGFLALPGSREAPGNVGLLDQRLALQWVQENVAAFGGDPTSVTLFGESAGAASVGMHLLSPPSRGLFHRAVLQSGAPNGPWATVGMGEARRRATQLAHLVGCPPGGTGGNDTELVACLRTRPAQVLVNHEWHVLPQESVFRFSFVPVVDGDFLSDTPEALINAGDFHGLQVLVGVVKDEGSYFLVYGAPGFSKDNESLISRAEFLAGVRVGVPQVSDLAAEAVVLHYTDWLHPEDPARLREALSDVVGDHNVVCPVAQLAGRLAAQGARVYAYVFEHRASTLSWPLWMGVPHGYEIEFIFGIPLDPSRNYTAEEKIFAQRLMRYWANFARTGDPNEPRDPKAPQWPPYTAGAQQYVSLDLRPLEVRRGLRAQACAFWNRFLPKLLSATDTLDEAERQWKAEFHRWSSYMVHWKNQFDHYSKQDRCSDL
smiles,measurement,setting,value
"Cc1cn2nc(-c3nc4ccc(N5CCN(C)CC5)cc4c(=O)[nH]3)cc2c(C)n1 [TEC-1, 2-(4,6-dimethylpyrazolo[1,5-a]pyrazin-2-yl)-6-(4-methylpiperazin-1-yl)quinazolin-4(3H)-one]",IC50,[1],1190 nM
same,effect on biological activity of 106 representative proteins,[2],weakly affected the biological activity of only two targets
same,AUC0–24 h,[3]; [6],2234.1 ng･h/g
same,AUC0–120 h,[3]; [6],2433.7 ng･h/g
same,AUC0–24 h,[3]; [7],3956.7 ng･h/g
same,AUC0–120 h,[3]; [7],8011.1 ng･h/g
same,AUC0–24 h,[3]; [8],6322.1 ng･h/g
same,AUC0–120 h,[3]; [8],29429.3 ng･h/g
same,Kp,"[3]; brain and plasma, other: intraperitoneal (juvenile) and oral (adult), juvenile (intraperitoneal) and adult (oral) FVB mice, read-out: Kp values (ratio of the compound in the brain and plasma)",> 1
same,Kp,"[3]; brain/plasma, 2 mg/kg oral single, adult FVB mice, read-out: Kp (AUC0–120h ratio)",1.2
same,Kp,"[3]; brain/plasma, 6 mg/kg oral single, adult FVB mice, read-out: Kp (AUC0–120h ratio)",1.2
same,Kp,"[3]; brain/plasma, 20 mg/kg oral single, adult FVB mice, read-out: Kp (AUC0–120h ratio)",1.8
same,Cmax,[3]; [6],168 ng/g
same,MRT,[3]; [6],10.7 h
same,Tmax,[3]; [6],1 h
same,Cmax,[3]; [7],195 ng/g
same,MRT,[3]; [7],29.5 h
same,Tmax,[3]; [7],7 h
same,Cmax,[3]; [8],360 ng/g
same,MRT,[3]; [8],54.6 h
same,Tmax,[3]; [8],32 h
same,MRT,[3]; [9],10.7 h
same,Tmax,[3]; [9],3 h
same,Cmax,"[3]; plasma, 2 mg/kg oral single, adult FVB mice, mean, n = 3",136 ng/mL
same,Cmax,[3]; [10],157 ng/mL
same,MRT,[3]; [10],33.1 h
same,Tmax,[3]; [10],3 h
same,Cmax,[3]; [11],222 ng/mL
same,MRT,[3]; [11],48.5 h
same,Tmax,[3]; [11],16 h
same,AUC0–24 h,[3]; [9],1906.7 ng･h/mL
same,AUC0–120 h,[3]; [9],2095.9 ng･h/mL
same,AUC0–24 h,[3]; [10],3100.3 ng･h/mL
same,AUC0–120 h,[3]; [10],6647.9 ng･h/mL
same,AUC0–24 h,[3]; [11],4950.5 ng･h/mL
same,AUC0–120 h,[3]; [11],16350.5 ng･h/mL
same,AUC0–24 h,[4]; [12],69.7 ng･h/g
same,AUC0–120 h,[4]; [12],87.7 ng･h/g
same,AUC0–24 h,[4]; [13],600.3 ng･h/g
same,AUC0–120 h,[4]; [13],716.7 ng･h/g
same,AUC0–24 h,[4]; [14],3547.9 ng･h/g
same,AUC0–120 h,[4]; [14],8261.5 ng･h/g
same,Kp,"[4]; 0.2 mg/kg i.p. single, juvenile FVB mice",5.8
same,Kp,"[4]; 0.6 mg/kg i.p. single, juvenile FVB mice",4.8
same,Kp,"[4]; 2 mg/kg i.p. single, juvenile FVB mice",4.5
same,Cmax,[4]; [12],10.5 ng/g
same,MRT,[4]; [12],11.2 h
same,Tmax,[4]; [12],0.5 h
same,Cmax,[4]; [13],63.2 ng/g
same,MRT,[4]; [13],11.8 h
same,Tmax,[4]; [13],1 h
same,Cmax,[4]; [14],219 ng/g
same,MRT,[4]; [14],35.8 h
same,Tmax,[4]; [14],1 h
same,Cmax,"[4]; plasma, 0.2 mg/kg i.p. single, juvenile (10-day-old) FVB mice, n = 3, pool",2.2 ng/mL
same,MRT,[4]; [15],7.21 h
same,Tmax,[4]; [15],0.5 h
same,Cmax,[4]; [16],11.3 ng/mL
same,MRT,[4]; [16],10.7 h
same,Tmax,[4]; [16],0.5 h
same,Cmax,[4]; [17],42 ng/mL
same,MRT,[4]; [17],40.4 h
same,Tmax,[4]; [17],3 h
same,AUC0–24 h,[4]; [15],15.2 ng･h/mL
same,AUC0–120 h,[4]; [15],15.2 ng･h/mL
same,AUC0–24 h,[4]; [16],129.9 ng･h/mL
same,AUC0–120 h,[4]; [16],149.1 ng･h/mL
same,AUC0–24 h,[4]; [17],718.6 ng･h/mL
same,AUC0–120 h,[4]; [17],1829.8 ng･h/mL
same,ChAT protein level,[5],increase the levels of choline acetyltransferase (ChAT)
